Data from publication PMC9196629, “Synthesis, Characterization and Antitumor Mechanism Investigation of Heterometallic Ru(Ⅱ)-Re(Ⅰ) Complexes” (Frontiers in Chemistry, 2022).

Assays:
[1] = system: A549R (cisplatin-resistant A549); assay: MTT cytotoxicity assay; type: cell-based, human; details: for IC50: MTT, 48 h incubation, mean ± SD; for fold greater ability to kill A549R cells than cisplatin: ratio of IC50 values, cisplatin / complex
Description: The anticancer activities of RuRe-1 and RuRe-2 against four cancer cell lines: HeLa (human cervical cancer cells), HepG2 (human hepatocellular carcinoma), A549 (human lung cancer cells), A549R (cisplatin-resistant A549) and one normal cell line LO2 (human normal liver cells) were determined by 3-(4,5-dimethylthiazole)-2,5-diphenyltetraazolium bromide (MTT) assay, while the mononuclear complexes Ru-1, Ru-2, Re-1 and cisplatin were selected as controls. […] And the in vitro antiproliferative efficacies of the compounds against HeLa cells were in the following order: RuRe-2 > RuRe-1 > Re-1 > cisplatin > Ru-1 > Ru-2. […] The anticancer activity of the mononuclear rhenium complex Re-1 was between 5.6 μM and 8.0 μM, which contributed the most to the antitumor activities of the heteronuclear Ru(II)-Re(Ⅰ) metal complexes.
Cell lines and culture conditions. HeLa, HepG2, A549, A549R and LO2 cells were purchased from Nanjing KeyGen Biotech., and cultured in DMEM or RPMI 1640 complete medium at 37 ℃ with 5% CO2 atmosphere.
In vitro cytotoxicity assay. The anti-tumor activity of mononuclear complexes Ru-1, Ru-2, Re-1 and heteronuclear RuRe-1 and RuRe-2 were determined by MTT (5 mg/mL) assay. Cells were placed in 96-well plates and cultured for 24 h at 37 ℃ in a 5% CO2 incubator. After replacing the culture medium with fresh medium containing RuRe-1 or RuRe-2 at the indicated concentration, cells were cultured for 48 h. 20 μL MTT was added to each well 4 h before the end of the incubation. Subsequently, the liquid in the cell wells was poured out and 150 μL/well DMSO was added to dissolve the MTT-formazan crystals. The absorbance of living cells at 570 nm was detected.

[2] = n-octanol/water partition coefficient by shaking flask method; type: physicochemical
From the text: Drugs exert their effects through pharmacokinetic processes such as absorption, distribution, and metabolism, which are closely related to the n-octanol/water partition coefficient of the drug (log P o/w) ([Choi et al., 2012]).

[3] = Stability in PBS by UV-Vis spectroscopy; type: physicochemical; details: 10 μM, PBS, 0, 24 and 48 h
Description: The stabilities of RuRe-1 and RuRe-2 in PBS and human serum albumin (HSA) were tested through UV–Vis spectroscopy.
Supplementary Figure 12. UV-Vis absorption spectra of RuRe-1 (10 μM), RuRe-2 (10 μM), Ru-1 (10 μM), Ru-2 (10 μM) and Re-1 (10 μM) in PBS (A) and HSA (B) solution collected at 0, 24, and 48 h, respectively.

[4] = system: PARP; assay: Western blot of apoptosis-related proteins; type: cell-based, human; details: HeLa, different concentrations, 24 h
Description: (§1) Cysteine aspartate proteases play an important role in apoptosis, especially caspase-3 protein, which is one of the most important execution factors in the apoptotic pathway ([Wang X. et al., 2021]). The poly(ADP-ribose) polymerase (PARP) is associated with DNA repair and guardianship of genetic integrity ([Pandey and Black, 2021]). After treating HeLa cells with different concentrations of RuRe-1 or RuRe-2 for 24 h, the expression of caspase-3 and the caspase substrate PARP apoptotic protein were detected by western blot. […] It was further shown that RuRe-1 and RuRe-2 are activators of caspase-3, which can trigger apoptosis in HeLa cells.
(§2) FIGURE 4 Expression of apoptosis-related protein (caspase-3 and PARP) in HeLa cells treated with RuRe-1 and RuRe-2 for 24 h.
(§3) Western blot analysis. HeLa cells were plated into the 6-well plates, after treating with different doses of RuRe-1 and RuRe-2 for 24 h, the cells were collected and lysed. The protein concentration was determined using the BCA assay kit. Equal amounts of protein were ran on SDS-PAGE and then transferred to the PVDF membrane.

[5] = system: caspase-3; assay: Western blot of apoptosis-related proteins; type: cell-based, human; details: HeLa, different concentrations, 24 h
Description: as §1, §2, §3

SMILES: F[P-](F)(F)(F)(F)F.F[P-](F)(F)(F)(F)F.F[P-](F)(F)(F)(F)F.[C-]#[O+].[C-]#[O+].[C-]#[O+].[Re+].[Ru+2].c1ccc(-c2ccccn2)nc1.c1ccc(-c2ccccn2)nc1.c1ccc(-c2ccnc3c2ccc2c(-c4ccccc4)ccnc23)cc1.c1cnc2c(c1)c1nc(-c3ccncc3)[nH]c1c1cccnc12 [RuRe-1, [Ru(bpy)2LRe(CO)3(DIP)](PF6)3]
- IC50 [1]: 10.4 ± 1.2 µM
- fold greater ability to kill A549R cells than cisplatin [1]: approximately 8.7 fold
- log P o/w [2]: 0.47
- stability in PBS (UV-Vis spectral characteristics and absorption peaks) [3]: no significant change
- cleavage of PARP (western blot) [4]: induced the cleavage
- cleavage of caspase-3 (western blot) [5]: induced the cleavage

SMILES: F[P-](F)(F)(F)(F)F.F[P-](F)(F)(F)(F)F.F[P-](F)(F)(F)(F)F.[C-]#[O+].[C-]#[O+].[C-]#[O+].[Re+].[Ru+2].c1ccc(-c2ccnc3c2ccc2c(-c4ccccc4)ccnc23)cc1.c1cnc2c(c1)c1nc(-c3ccncc3)[nH]c1c1cccnc12.c1cnc2c(c1)ccc1cccnc12.c1cnc2c(c1)ccc1cccnc12 [RuRe-2, [Ru(phen)2LRe(CO)3(DIP)](PF6)3]
- IC50 [1]: 16.7 ± 0.8 µM
- fold greater ability to kill A549R cells than cisplatin [1]: ~5.4 fold
- log P o/w [2]: 2.10
- stability in PBS (UV-Vis spectral characteristics and absorption peaks) [3]: no significant change
- cleavage of PARP (western blot) [4]: induced the cleavage
- cleavage of caspase-3 (western blot) [5]: induced the cleavage
